Where two headings read alike, the source gives them in different places.
How the values were obtained:
Haemonchus contortus = Haemonchus contortus larvacidal (larval development) assay; assay type: in vivo; conditions: 144 h, read-out: Haemonchus contortus LD99
Experimental: a) Haemonchus Contortus Larvacidal Assay:
The effect of compounds on larval development was determined in the assay described by Gill et al. (1995, International Journal of Parasitology 25:463-470). Briefly, in this assay, nematode eggs were applied to the surface of an agar matrix containing the test compound and then allowed to develop through to the L3, infective stage (6 days). The wells for each dilution of every compound (from highest to lowest concentration) were inspected to determine the well number corresponding to the lowest concentration at which development was inhibited in 99% of the nematode larvae present (LD99). Because well numbers correspond to a two-fold serial dilution of each compound, a titre (dilution factor) is generated as 2^n−1, where n is the well number. By dividing the highest concentration tested by the titre an LD99 value can be obtained, representing the concentration required to inhibit development in 99% of the nematode larvae present. The compounds supplied as solid and viscous liquids were dissolved in DMSO. Twelve serial one-half dilutions in DMSO solution were prepared from the stock solution, each of which was then diluted ⅕ with water. Aliquots (10 μl) of each dilution were transferred to the bioassay plates to give a final concentration range of 0.024 to 50 μg/ml.

[1] = system: cat flea (Ctenocephalides felis); test: whole plant or invertebrate; assay type: in vivo; conditions: Ctenocephalides felis
Experimental: b) Ctenocephalides felis Adulticide Assay: C. felis Single Dose Screen
Mortality of fleas was the primary endpoint in the assay. Fleas were considered dead if they didn't move or were on their sides and unable to walk or right themselves. […] The concentration chosen (1.26 μg/cm^2) was higher than that known to kill 90% of cat fleas (LC90) using the reference compound, permethrin.
The test species was the cat flea (Ctenocephalides felis). The strain used was obtained from external suppliers as pupae and held in the laboratory under testing conditions until the adults had emerged. Fifteen (15) fleas were used in a minimum of four replicates against a single concentration level (approximately 60 fleas). The insects were selected to be in the adult life stage, aged between 3 and 7 days post emergence.
The compounds to be tested were supplied as solids and were prepared in acetone as described below prior to testing. Samples were stored in a refrigerator (5±1° C.) unless otherwise specified.
During the mortality testing, the temperature was maintained at 25±1° C. Humidity was maintained at 75±5%. The base (area=159 mm^2) of a 100 mL glass Erlenmeyer (conical) flask provided the treatment surface. Flasks were pretreated with Coatasil™ glass treatment to maximise bio-availability of test compounds by preventing them from binding to glass the surface. The base of the 100 mL Erlenmeyer flask was treated with 0.5 mL of test sample in acetone and gently swirled. This volume was sufficient to cover the base of the flask. Flasks were left to dry for 24 hours before flea exposure.
Adult cat fleas were placed into a sorting chamber, which allowed fleas to jump into the Erlenmeyer flasks. Fifteen (15) adult cat fleas were collected in each flask. The top of the flasks were then covered in Parafilm™ and small holes were made to allow gas exchange. A 0.5 mL volume of acetone as a solvent control was applied to the base of an Erlenmeyer flask and the testing proceeded in the same manner described above. Cat fleas in the treatment containers were held under testing conditions for 8, 24 and/or 48 hours. Mortality was recorded at 8, 24, 8 and 24, or 24 and 48 hours. Pooled 8, 24, 8 and 24, and 24 and 48 hour mortality data were converted to percentages and are summarized by Tables 14, 14A and 14B, below.

[2] = 8 h, read-out: C. felis Mortality (%) 8 h, 8 h, Laboratory 1 A data
[3] = 24 h, read-out: C. felis Mortality (%) 24 h, 24 h, Laboratory 1 A data
[4] = lowest concentration inhibiting development in 99% of larvae, eggs to L3, 6 days, range 0.024 to 50 μg/ml

Row | SMILES | IC99 (Haemonchus contortus) [µg/mL] | also measured
1 | O=S(=O)(Nc1ccc(Cl)cc1/C(=N/OCc1ccc(C(F)(F)F)cc1C(F)(F)F)c1ccccc1)C(F)(F)F [Compound 78] | 1.8 | mortality at 1.26 µg/cm2, 1.26 µg/cm2 [1, 2]: 21%
2 | CC/C(=N\OCc1c(F)c(F)c(F)c(F)c1F)c1cc(Cl)ccc1NS(=O)(=O)C(F)(F)F [Compound 77] | 2.5 | mortality at 1.26 µg/cm2, 1.26 µg/cm2 [1, 2]: 3%
3 | CC/C(=N\Oc1cccc(C(F)(F)F)c1)c1cc(Cl)ccc1NS(=O)(=O)C(F)(F)F [Compound 133] | 0.9 | mortality at 1.26 µg/cm2, 1.26 µg/cm2 [1, 3]: 71%
4 | C/C(=N\OCc1ccc(C#N)cc1)c1cc(Cl)ccc1NS(=O)(=O)C(F)(F)F [Compound 73] | 5 | mortality at 1.26 µg/cm2, 1.26 µg/cm2 [1, 2]: 1%
5 | CC/C(=N\Oc1ccc(C#N)cc1)c1cc(Cl)ccc1NS(=O)(=O)C(F)(F)F [Compound 136] | 2.5 | mortality at 1.26 µg/cm2, 1.26 µg/cm2 [1, 3]: 74%
6 | CC/C(=N\Oc1ccc(Br)cc1)c1cc(Cl)ccc1NS(=O)(=O)C(F)(F)F [Compound 138] | 1.7 | mortality at 1.26 µg/cm2, 1.26 µg/cm2 [1, 3]: 78%
7 | O=S(=O)(Nc1ccc(Cl)cc1/C=N/OCc1ccc(Cl)c(Cl)c1)C(F)(F)F [Compound 97, N-{4-chloro-2-[(3,4-dichlorobenzyloxyimino)methyl]phenyl}trifluoromethanesulfonamide] | 0.6 | mortality at 1.26 µg/cm2, 1.26 µg/cm2 [1, 3]: 42%
8 | C/C(=N\Oc1ccc(Cl)c(Cl)c1)c1cc(Cl)ccc1NS(=O)(=O)C(F)(F)F [Compound 140] | 0.7 | mortality at 1.26 µg/cm2, 1.26 µg/cm2 [1, 3]: 71%
9 | O=S(=O)(Nc1ccc(Cl)cc1-c1cc(-c2ccc(Cl)cc2)on1)C(F)(F)F [Compound 227] | – | IC99 (Haemonchus contortus; [4]): 0.1 µg/mL; mortality at 1.26 µg/cm2 ([1]; 8 h, read-out: Ctenocephalides felis Mortality (%) 8 h): 7%; mortality at 1.26 µg/cm2 ([1]; 24 h, read-out: Ctenocephalides felis Mortality (%) 24 h): 9%
10 | CC(C)/C(=N\OCc1ccc(C(F)(F)F)cc1)c1cc(Cl)ccc1NS(=O)(=O)C(F)(F)F [Compound 108] | 1.3 | mortality at 1.26 µg/cm2, 1.26 µg/cm2 [1, 2]: 12%
11 | O=S(=O)(Nc1ccc(Cl)cc1-c1cc(-c2ccccc2)on1)C(F)(F)F [Compound 225] | – | IC99 (Haemonchus contortus; [4]): 3.2 µg/mL
12 | CC/C(=N\OC/C=C/c1ccccc1)c1cc(Cl)ccc1NS(=O)(=O)C(F)(F)F [Compound 85] | 1.6 | mortality at 1.26 µg/cm2, 1.26 µg/cm2 [1, 2]: 6%
13 | CCC/C(=N\OCCOc1ccccc1)c1cc(Cl)ccc1NS(=O)(=O)C(F)(F)F [Compound 115] | 7.5 | –
14 | C/C(=N\OCc1cccc(Cl)c1Cl)c1cc(Cl)ccc1NS(=O)(=O)C(F)(F)F [Compound 19] | 0.7 | –
15 | O=S(=O)(Nc1ccc(Cl)cc1/C(=N/OCc1ccccc1C(F)(F)F)c1ccccc1)C(F)(F)F [Compound 69] | 2.7 | –
16 | O=S(=O)(Nc1ccc(Cl)cc1/C=N/OCc1ccc(Br)cc1)C(F)(F)F [Compound 96] | 0.7 | mortality at 1.26 µg/cm2, 1.26 µg/cm2 [1, 3]: 21%
17 | C/C(=N\OCc1ccc(Cl)cc1Cl)c1cc(Cl)ccc1NS(=O)(=O)C(F)(F)F [Compound 21] | 0.7 | mortality at 1.26 µg/cm2, 1.26 µg/cm2 [1, 2]: 5%
18 | CCC/C(=N\OCc1ccc(Br)cc1)c1cc(Cl)ccc1NS(=O)(=O)C(F)(F)F [Compound 102] | 1.9 | –
19 | CC/C(=N\OCc1ccc(C(C)(C)C)cc1)c1cc(Cl)ccc1NS(=O)(=O)C(F)(F)F [Compound 5] | 3.3 | mortality at 1.26 µg/cm2, 1.26 µg/cm2 [1, 2]: 8%
20 | C/C(=N\OCc1ccc(C(F)(F)F)cc1C(F)(F)F)c1cc(Cl)ccc1NS(=O)(=O)C(F)(F)F [Compound 2, N-{2-[1-(2,4-bistrifluoromethylbenzyloxyimino)ethyl]-4-chlorophenyl}trifluoromethanesulfonamide] | 0.1 | mortality at 1.26 µg/cm2, 1.26 µg/cm2 [1, 2]: 2%
21 | O=S(=O)(Nc1ccc(Cl)cc1/C(=N/OCc1ccccc1)c1ccccc1)C(F)(F)F [Compound 66] | 13 | –
22 | CC(C)/C(=N\OCc1ccc(Cl)cc1)c1cc(Cl)ccc1NS(=O)(=O)C(F)(F)F [Compound 117] | 3.5 | –
23 | C/C(=N\OCc1c(Cl)cccc1Cl)c1cc(Cl)ccc1NS(=O)(=O)C(F)(F)F [Compound 20] | 12 | –
24 | C/C(=N\OCc1cccc(Oc2ccccc2)c1)c1cc(Cl)ccc1NS(=O)(=O)C(F)(F)F [Compound 47] | 1.5 | –

Row | SMILES | IC99 (Haemonchus contortus) [µg/mL] | also measured
25 | O=S(=O)(Nc1ccc(Cl)cc1/C(=N/OCc1ccc(F)cc1F)c1ccccc1)C(F)(F)F [Compound 82] | 3.3 | –
26 | CC/C(=N\OCc1ccccc1)c1cc(Cl)ccc1NS(=O)(=O)C(F)(F)F [Compound 107] | 10 | –
27 | O=S(=O)(Nc1ccc(Cl)cc1/C=N/OCc1ccc(C(F)(F)F)cc1C(F)(F)F)C(F)(F)F [Compound 65, N-{2-[(2,4-bistrifluoromethylbenzyloxyimino)methyl]-4-chlorophenyl}trifluoromethanesulfonamide] | 0.3 | mortality at 1.26 µg/cm2, 1.26 µg/cm2 [1, 2]: 10%
28 | O=S(=O)(Nc1ccc(Cl)cc1/C(=N/OCc1cccc(Cl)c1Cl)c1ccccc1)C(F)(F)F [Compound 62] | 3 | –
29 | C/C(=N\OCc1ccc(Cl)cc1)c1cc(Cl)ccc1NS(=O)(=O)C(F)(F)F [Compound 16] | 1.3 | mortality at 1.26 µg/cm2, 1.26 µg/cm2 ([1]; 8 h, read-out: C. felis Mortality (%) 8 h, 8 h, Laboratory 2 B data): 90%; mortality at 1.26 µg/cm2, 1.26 µg/cm2 ([1]; 24 h, read-out: C. felis Mortality (%) 24 h, 24 h, Laboratory 2 B data): 100%
30 | C/C(=N\OCc1ccc(C(F)(F)F)cc1C(F)(F)F)c1cc(F)ccc1NS(=O)(=O)C(F)(F)F [Compound 121] | 0.6 | mortality at 1.26 µg/cm2, 1.26 µg/cm2 [1, 2]: 3%
31 | C/C(=N\Oc1ccc(C#N)cc1)c1cc(Cl)ccc1NS(=O)(=O)C(F)(F)F [Compound 135] | 3 | mortality at 1.26 µg/cm2, 1.26 µg/cm2 [1, 3]: 47%
32 | CC/C(=N\OCc1cccc(C(F)(F)F)c1)c1cc(Cl)ccc1NS(=O)(=O)C(F)(F)F [Compound 12] | 1.7 | –
33 | O=S(=O)(Nc1ccc(Cl)cc1/C=N/OCc1ccc(Cl)cc1Cl)C(F)(F)F [Compound 67] | 0.9 | mortality at 1.26 µg/cm2, 1.26 µg/cm2 [1, 2]: 12%
34 | O=S(=O)(Nc1ccc(Cl)cc1/C=N/OCc1cccc(Cl)c1Cl)C(F)(F)F [Compound 95] | 0.8 | –
35 | CCC/C(=N\OCc1ccc(Cl)cc1)c1cc(Cl)ccc1NS(=O)(=O)C(F)(F)F [Compound 112] | 3 | –
36 | C/C(=N\OCc1cccc(Cl)c1)c1cc(Cl)ccc1NS(=O)(=O)C(F)(F)F [Compound 18] | 3.7 | –
37 | O=S(=O)(Nc1ccc(Cl)cc1/C=N/OCc1ccc(Cl)cc1)C(F)(F)F [Compound 81] | 1.7 | –
38 | CC/C(=N\OCc1cccc(Cl)c1)c1cc(Cl)ccc1NS(=O)(=O)C(F)(F)F [Compound 7] | 1.6 | –
39 | CC(C)/C(=N\OCc1ccc(C2CCCCC2)cc1)c1cc(Cl)ccc1NS(=O)(=O)C(F)(F)F [Compound 118] | 10 | –
40 | O=S(=O)(Nc1ccc(Cl)cc1/C=N/OCc1ccc(C(F)(F)F)cc1)C(F)(F)F [Compound 70] | 3 | –
41 | CC/C(=N\OCc1c(Cl)cccc1Cl)c1cc(Cl)ccc1NS(=O)(=O)C(F)(F)F [Compound 8] | 13 | –
42 | N#Cc1ccc(CO/N=C(\c2ccccc2)c2cc(Cl)ccc2NS(=O)(=O)C(F)(F)F)cc1 [Compound 80] | 3.5 | –
43 | CCC/C(=N\OCc1ccc(Cl)c(Cl)c1)c1cc(Cl)ccc1NS(=O)(=O)C(F)(F)F [Compound 101] | 1.9 | –
44 | COc1ccc(CO/N=C(\c2ccccc2)c2cc(Cl)ccc2NS(=O)(=O)C(F)(F)F)cc1 [Compound 88] | 15 | –
45 | C/C(=N\OCc1ccccc1)c1cc(Cl)ccc1NS(=O)(=O)C(F)(F)F [Compound 22] | 6 | –
46 | CC/C(=N\OCCCc1ccccc1)c1cc(Cl)ccc1NS(=O)(=O)C(F)(F)F [Compound 105] | 3.5 | –
47 | C/C(=N\OCc1cccc(C(F)(F)F)c1)c1cc(Cl)ccc1NS(=O)(=O)C(F)(F)F [Compound 15] | 2.7 | –

Reference: patent US7312248B2, “Control of parasites in animals by the use of novel trifluoromethanesulfonanilide oxime ether derivatives” (Schering-Plough Animal Health Corporation, priority 2004, dated 2007)
